# Data: publication PMC9341091, “Design, synthesis, and molecular docking studies of diphenylquinoxaline-6-carbohydrazide hybrids as potent α-glucosidase inhibitors” (BMC Chemistry, 2022)
# Read-outs that look alike come from different tables or passages of the source.
# What was measured:
# [1] = target: α-glucosidase from Saccharomyces cerevisiae (Saccharomyces cerevisiae, UniProt P53341); test: biochemical
# Method: The α-glucosidase inhibitory effects of diphenylquinoxaline-6-carbohydrazide hybrids 7a–o were determined by previously reported method. […] Later on, 25 μL of the substrate (p-nitrophenyl glucopyranoside, 4 mM) was added to each well of the plate, and incubation was continued for 20 min at 37 ^◦C.
# α-glucosidase [2] = target: α-glucosidase (Saccharomyces cerevisiae, UniProt P53341); test: Enzyme kinetic studies (Lineweaver–Burk plot, secondary plot); type: biochemical
# Chain of α-glucosidase (Saccharomyces cerevisiae, UniProt P53341) (P53341 whole entry): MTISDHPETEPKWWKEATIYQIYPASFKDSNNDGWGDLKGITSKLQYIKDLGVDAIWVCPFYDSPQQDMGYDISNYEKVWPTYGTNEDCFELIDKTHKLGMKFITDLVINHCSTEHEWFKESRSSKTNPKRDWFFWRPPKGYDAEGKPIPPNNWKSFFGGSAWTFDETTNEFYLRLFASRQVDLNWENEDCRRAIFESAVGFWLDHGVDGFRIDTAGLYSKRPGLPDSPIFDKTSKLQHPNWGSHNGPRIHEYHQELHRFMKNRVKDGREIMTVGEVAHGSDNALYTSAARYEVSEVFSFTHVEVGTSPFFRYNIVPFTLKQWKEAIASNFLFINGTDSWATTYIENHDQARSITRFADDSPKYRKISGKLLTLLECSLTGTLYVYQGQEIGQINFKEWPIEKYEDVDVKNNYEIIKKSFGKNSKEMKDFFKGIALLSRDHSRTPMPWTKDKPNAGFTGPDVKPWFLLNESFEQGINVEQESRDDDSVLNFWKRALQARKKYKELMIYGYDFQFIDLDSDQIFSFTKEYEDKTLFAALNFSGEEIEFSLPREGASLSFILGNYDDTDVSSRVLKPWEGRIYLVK
# Method: A Lineweaver–Burk plot was generated to identify the type of inhibition and the Michaelis–Menten constant (Km) value was determined from the plot between reciprocal of the substrate concentration (1/[S]) and reciprocal of enzyme rate (1/V) over various inhibitor concentrations. The experimental inhibitor constant (Ki) value was constructed by secondary plots of the inhibitor concentration [I] versus Km.
# α-glucosidase [3] = target: α-glucosidase; parameters: method as in doi:10.1039/C9NJ02580D; conditions: compound A versus standard acarbose; cited from earlier work
# α-glucosidase [4] = target: α-glucosidase; parameters: method as in PMID 24398385; conditions: cited from earlier work
# Chain of α-glucosidase from Saccharomyces cerevisiae (P53341 whole entry): as above
SMILES,IC50 [1],melting point,also measured
"O=C(NN=Cc1ccccc1)c1ccc2nc(-c3ccccc3)c(-c3ccccc3)nc2c1 [7a, N'-benzylidene-2,3-diphenylquinoxaline-6-carbohydrazide]",155 ± 3 µM,230 to 232 °C,
"O=C(NN=Cc1ccccc1[N+](=O)[O-])c1ccc2nc(-c3ccccc3)c(-c3ccccc3)nc2c1 [7b, N'-(2-nitrobenzylidene)-2,3-diphenylquinoxaline-6-carbohydrazide]",175 ± 5.9 µM,> 250 °C,
"O=C(NN=Cc1cccc([N+](=O)[O-])c1)c1ccc2nc(-c3ccccc3)c(-c3ccccc3)nc2c1 [7c, N'-(3-nitrobenzylidene)-2,3-diphenylquinoxaline-6-carbohydrazide]",279 ± 5.8 µM,> 250 °C,
"O=C(NN=Cc1ccc([N+](=O)[O-])cc1)c1ccc2nc(-c3ccccc3)c(-c3ccccc3)nc2c1 [7d, N'-(4-nitrobenzylidene)-2,3-diphenylquinoxaline-6-carbohydrazide]",240 ± 7.5 µM,> 250 °C,
"O=C(NN=Cc1cccc(F)c1)c1ccc2nc(-c3ccccc3)c(-c3ccccc3)nc2c1 [7e, N'-(3-fluorobenzylidene)-2,3-diphenylquinoxaline-6-carbohydrazide]",,> 250 °C,"IC50 ([1]; in vitro α-glucosidase inhibition, substrate p-nitrophenyl glucopyranoside, mean ± SEM, at least three experiments, read-out: IC50): 111 ± 6 µM; type of inhibition (α-glucosidase [2]; Lineweaver–Burk plot, Km increased, Vmax unchanged): competitive; Ki (α-glucosidase [2]; secondary plot of Km versus inhibitor concentration (0, 30, 70 and 110 µM), read-out: inhibition constant Ki): 107 µM"
"O=C(NN=Cc1ccc(Cl)cc1)c1ccc2nc(-c3ccccc3)c(-c3ccccc3)nc2c1 [7f, N'-(4-chlorobenzylidene)-2,3-diphenylquinoxaline-6-carbohydrazide]",260 ± 4.5 µM,234 to 238 °C,
"COc1ccc(C=NNC(=O)c2ccc3nc(-c4ccccc4)c(-c4ccccc4)nc3c2)cc1 [7g, N'-(4-methoxybenzylidene)-2,3-diphenylquinoxaline-6-carbohydrazide]",320 ± 4.9 µM,> 250 °C,
"COc1cccc(C=NNC(=O)c2ccc3nc(-c4ccccc4)c(-c4ccccc4)nc3c2)c1[N+](=O)[O-] [7h, N'-(3-methoxy-2-nitrobenzylidene)-2,3-diphenylquinoxaline-6-carbohydrazide]",305 ± 7.2 µM,> 250 °C,
"O=C(NN=Cc1cc([N+](=O)[O-])ccc1Cl)c1ccc2nc(-c3ccccc3)c(-c3ccccc3)nc2c1 [7i, N'-(2-chloro-5-nitrobenzylidene)-2,3-diphenylquinoxaline-6-carbohydrazide]",231 ± 5.5 µM,> 250 °C,
"COc1cc(C=NNC(=O)c2ccc3nc(-c4ccccc4)c(-c4ccccc4)nc3c2)ccc1O [7j, N'-(4-hydroxy-3-methoxybenzylidene)-2,3-diphenylquinoxaline-6-carbohydrazide]",358 ± 6.1 µM,> 250 °C,
"COc1cc(/C=N/NC(=O)c2ccc3nc(-c4ccccc4)c(-c4ccccc4)nc3c2)cc(OC)c1OC [7k, (E)-2,3-diphenyl-N'-(3,4,5-trimethoxybenzylidene)quinoxaline-6-carbohydrazide]",> 750 µM,,
"O=C(NN=Cc1cccc(Oc2ccccc2)c1)c1ccc2nc(-c3ccccc3)c(-c3ccccc3)nc2c1 [7l, N'-(3-phenoxybenzylidene)-2,3-diphenylquinoxaline-6-carbohydrazide]",453 ± 4.7 µM,> 250 °C,
"O=C(NN=Cc1cc2c(cc1[N+](=O)[O-])OCO2)c1ccc2nc(-c3ccccc3)c(-c3ccccc3)nc2c1 [7m, N'-((6-nitrobenzo[d][1,3]dioxol-5-yl)methylene)-2,3-diphenylquinoxaline-6-carbohydrazide]",353.7 ± 3.5 µM,> 250 °C,
"O=C(NN=Cc1cccc2ccccc12)c1ccc2nc(-c3ccccc3)c(-c3ccccc3)nc2c1 [7n, N'-(naphthalen-1-ylmethylene)-2,3-diphenylquinoxaline-6-carbohydrazide]",388 ± 6.5 µM,> 250 °C,
"O=C(NN=Cc1cccs1)c1ccc2nc(-c3ccccc3)c(-c3ccccc3)nc2c1 [7o, 2,3-diphenyl-N'-(thiophen-2-ylmethylene)quinoxaline-6-carbohydrazide]",145 ± 5 µM,242 to 246 °C,
Cc1nc2ccccc2n(CC(=O)N/N=C/c2ccc(OCCc3cn(CN4CCOCC4)nn3)cc2)c1=O [compound A],,,IC50 (α-glucosidase [3]): 21.92 µg/mL
O=C(N/N=C1/c2ccccc2-c2nc3ccccc3nc21)c1ccc(Br)cc1 [compound B],,,IC50 (α-glucosidase [4]; compound B versus standard acarbose): 22.67 ± 0.1 µM
Cc1ccc(NC(=O)Cn2c(=O)c(C)nc3ccccc32)c([N+](=O)[O-])c1 [compound C],,,IC50 (α-glucosidase [4]; compound C versus standard acarbose): 83.8 ± 0.89 µM
